From patent US9655363B2, “Microbiocides” (Syngenta Participations AG, priority 2013, dated 2017)

What was measured:
[1] = system: Blumeria Graminis f. sp. Tritici (Erysiphe Graminis f. sp. Tritici); assay: Blumeria graminis f. sp. tritici / wheat / leaf disc preventative (powdery mildew on wheat); format: in vivo; settings: foliar, wheat leaf disc cv. Kanzler, compared to untreated, 6-8 days after application, read-out: disease control
Procedure: Fungicidal Activity Against Blumeria Graminis f. sp. Tritici (Erysiphe Graminis f. sp. Tritici)/Wheat/Leaf Disc Preventative (Powdery Mildew on Wheat) Wheat leaf segments cv. Kanzler were placed on agar in a multiwell plate (24-well format) and sprayed with the formulated test compound diluted in water. The leaf disks were inoculated by shaking powdery mildew infected plants above the test plates 1 day after application. The inoculated leaf disks were incubated at 20° C. and 60% rh under a light regime of 24 h darkness followed by 12 h light/12 h darkness in a climate chamber and the activity of a compound was assessed as percent disease control compared to untreated when an appropriate level of disease damage appears on untreated check leaf segments (6-8 days after application).

[2] = system: Puccinia Recondita f. sp. Tritici; assay: Puccinia recondita f. sp. tritici / wheat / leaf disc preventative (brown rust); format: in vivo; settings: foliar, wheat leaf disc cv. Kanzler, compared to untreated, 7-9 days after application, read-out: disease control
Procedure: Fungicidal Activity Against Puccinia Recondita f. sp. Tritici/Wheat/Leaf Disc Preventative (Brown Rust) Wheat leaf segments cv. Kanzler were placed on agar in multiwell plates (24-well format) and sprayed with the formulated test compound diluted in water. The leaf disks were inoculated with a spore suspension of the fungus 1 day after application. The inoculated leaf segments were incubated at 19° C. and 75% rh under a light regime of 12 h light/12 h darkness in a climate cabinet and the activity of a compound was assessed as percent disease control compared to untreated when an appropriate level of disease damage appears in untreated check leaf segments (7-9 days after application).

[3] = system: Puccinia Recondita f. sp. Tritici; assay: Puccinia recondita f. sp. tritici / wheat / leaf disc curative (brown rust); format: in vivo; settings: foliar, 192 h, compared to untreated, 8 days after inoculation, read-out: disease control
Procedure: Fungicidal Activity Against Puccinia Recondita f. sp. Tritici/Wheat/Leaf Disc Curative (Brown Rust) Wheat leaf segments are placed on agar in multiwell plates (24-well format). The leaf disks are then inoculated with a spore suspension of the fungus. One day after inoculation the test solution is applied. After appropriate incubation the activity of a compound is assessed 8 dpi (days after inoculation) as curative fungicidal activity. Dose range: 200-22 ppm.

[4] = system: Mycosphaerella Arachidis (Cercospora Arachidicola); assay: Mycosphaerella arachidis (Cercospora arachidicola) / liquid culture (early leaf spot); format: cell-based; settings: liquid culture (PDB), growth inhibition photometrically 4-5 days after application, read-out: disease control
Procedure: (§1) Fungicidal Activity Against Mycosphaerella Arachidis (Cercospora Arachidicola)/Liquid Culture (Early Leaf Spot) Conidia of the fungus from cryogenic storage were directly mixed into nutrient broth (PDB potato dextrose broth). After placing a (DMSO) solution of test compound into a microtiter plate (96-well format), the nutrient broth containing the fungal spores was added. The test plates were incubated at 24° C. and the inhibition of growth was determined photometrically 4-5 days after application.

[5] = system: Mycosphaerella Graminicola (Septoria Tritici); assay: Mycosphaerella graminicola (Septoria tritici) / liquid culture (Septoria blotch); format: cell-based; settings: Zymoseptoria tritici, liquid culture (PDB), growth inhibition photometrically 4-5 days after application, read-out: disease control
Procedure: as §1, with “Graminicola (Septoria Tritici)/Liquid” for “Arachidis (Cercospora Arachidicola)/Liquid”, “(Septoria Blotch)” for “(Early Leaf Spot)”

[6] = system: Thanatephorus Cucumeris (Rhizoctonia Solani); assay: Thanatephorus cucumeris (Rhizoctonia solani) / liquid culture (foot rot, damping-off); format: cell-based; settings: liquid culture (PDB), growth inhibition photometrically 3-4 days after application, read-out: disease control
Procedure: Fungicidal Activity Against Thanatephorus Cucumeris (Rhizoctonia Solani)/Liquid Culture (Foot Rot, Damping-Off) Mycelia fragments of a newly grown liquid culture of the fungus were directly mixed into nutrient broth (PDB potato dextrose broth). After placing a (DMSO) solution of the test compounds into a microtiter plate (96-well format), the nutrient broth containing the fungal material was added. The test plates were incubated at 24° C. and the inhibition of growth was determined photometrically 3-4 days after application. Compounds (from table T1) 1, 2, 4, 7, 8, 10, 11, 13, 14 and 17 at 200 ppm give at least 80% disease control in this test when compared to untreated control leaf disks under the same conditions, which show extensive disease development.

N#Cc1ccc(-c2ccc(C3(C(O)(Cn4cncn4)c4ccc(F)cc4)CC3)nc2)cc1 (stereo not shown) [Compound 8, 4-[6-[1-[1-(4-fluorophenyl)-1-hydroxy-2-(1,2,4-triazol-1-yl)ethyl]cyclopropyl]-3-pyridyl]benzonitrile]
≥ 80%: pest or weed control at 200 ppm [1] | pest or weed control at 200 ppm [2] | pest or weed control at 200 ppm [3] | inhibition of growth at 200 ppm [4] | inhibition of growth at 200 ppm [5] | inhibition of growth at 200 ppm [6]

OC(Cn1cncn1)(c1ccc(F)cc1)C1(c2ccc(C(F)(F)F)cn2)CC1 (stereo not shown) [Compound 13, 1-(4-fluorophenyl)-2-(1,2,4-triazol-1-yl)-1-[1-[5-(trifluoromethyl)-2-pyridyl]cyclopropyl]ethanol]
≥ 80%: pest or weed control at 200 ppm [1] | pest or weed control at 200 ppm [2] | pest or weed control at 200 ppm [3] | inhibition of growth at 200 ppm [4] | inhibition of growth at 200 ppm [5] | inhibition of growth at 200 ppm [6]

OC(Cn1ccnc1)(c1ccc(F)cc1)C1(c2ncc(Br)cc2Cl)CC1 (stereo not shown) [Compound 5, 1-[1-(5-bromo-3-chloro-2-pyridyl)cyclopropyl]-1-(4-fluorophenyl)-2-imidazol-1-yl-ethanol]
≥ 80%: pest or weed control at 200 ppm [1] | pest or weed control at 200 ppm [2] | pest or weed control at 200 ppm [3]

OC(Cn1ccnc1)(c1ccc(F)cc1)C1(c2ccc(Br)cn2)CC1 (stereo not shown) [Compound 3, 1-[1-(5-bromo-2-pyridyl)cyclopropyl]-1-(4-fluorophenyl)-2-imidazol-1-yl-ethanol]
≥ 80%: pest or weed control at 200 ppm [1] | pest or weed control at 200 ppm [2] | pest or weed control at 200 ppm [3]

OC(Cn1cncn1)(c1ccc(F)cc1)C1(c2ccc(-c3ccc(Cl)cc3F)cn2)CCC1 (stereo not shown) [Compound 19, 1-[1-[5-(4-chloro-2-fluoro-phenyl)-2-pyridyl]cyclobutyl]-1-(4-fluorophenyl)-2-(1,2,4-triazol-1-yl)ethanol]
≥ 80%: pest or weed control at 200 ppm [1] | inhibition of growth at 200 ppm [4] | inhibition of growth at 200 ppm [5]

OC(Cn1cncn1)(c1ccc(F)cc1)C1(c2ccc(Cl)cn2)CC1 (stereo not shown) [Compound 14, 1-[1-(5-chloro-2-pyridyl)cyclopropyl]-1-(4-fluorophenyl)-2-(1,2,4-triazol-1-yl)ethanol]
≥ 80%: pest or weed control at 200 ppm [1] | pest or weed control at 200 ppm [2] | pest or weed control at 200 ppm [3] | inhibition of growth at 200 ppm [4] | inhibition of growth at 200 ppm [5] | inhibition of growth at 200 ppm [6]

OC(Cn1cncn1)(c1ccc(F)cc1)C1(c2ncc(Br)cc2Cl)CC1 (stereo not shown) [Compound 2, 1-[1-(5-bromo-3-chloro-2-pyridyl)cyclopropyl]-1-(4-fluorophenyl)-2-(1,2,4-triazol-1-yl)ethanol]
≥ 80%: pest or weed control at 200 ppm [1] | pest or weed control at 200 ppm [2] | pest or weed control at 200 ppm [3] | inhibition of growth at 200 ppm [4] | inhibition of growth at 200 ppm [5] | inhibition of growth at 200 ppm [6]

OC(Cn1cncn1)(c1ccc(Cl)cc1)C1(c2ccc(Cl)cn2)CC1 (stereo not shown) [Compound 11, 1-(4-chlorophenyl)-1-[1-(5-chloro-2-pyridyl)cyclopropyl]-2-(1,2,4-triazol-1-yl)ethanol]
≥ 80%: pest or weed control at 200 ppm [1] | pest or weed control at 200 ppm [2] | pest or weed control at 200 ppm [3] | inhibition of growth at 200 ppm [4] | inhibition of growth at 200 ppm [5] | inhibition of growth at 200 ppm [6]

OC(Cn1cncn1)(c1ccc(F)cc1)C1(c2ccc(-c3cccc(OC(F)(F)F)c3)cn2)CCC1 (stereo not shown) [Compound 18, 1-(4-fluorophenyl)-2-(1,2,4-triazol-1-yl)-1-[1-[5-[3-(trifluoromethoxy)phenyl]-2-pyridyl]cyclobutyl]ethanol]
≥ 80%: pest or weed control at 200 ppm [1] | inhibition of growth at 200 ppm [4] | inhibition of growth at 200 ppm [5]

N#Cc1ccc(C2(C(O)(Cn3cncn3)c3ccc(F)cc3)CC2)nc1 (stereo not shown) [Compound 12, 6-[1-[1-(4-fluorophenyl)-1-hydroxy-2-(1,2,4-triazol-1-yl)ethyl]cyclopropyl]pyridine-3-carbonitrile]
≥ 80%: pest or weed control at 200 ppm [1] | pest or weed control at 200 ppm [2] | pest or weed control at 200 ppm [3] | inhibition of growth at 200 ppm [5]

OC(Cn1cncn1)(c1ccc(Cl)cc1)C1(c2ccccn2)CC1 (stereo not shown) [Compound 1, 1-(4-chlorophenyl)-1-[1-(2-pyridyl)cyclopropyl]-2-(1,2,4-triazol-1-yl)ethanol]
≥ 80%: pest or weed control at 200 ppm [1] | pest or weed control at 200 ppm [2] | pest or weed control at 200 ppm [3] | inhibition of growth at 200 ppm [4] | inhibition of growth at 200 ppm [5] | inhibition of growth at 200 ppm [6]

OC(Cn1cncn1)(c1ccc(F)cc1)C1(c2ccc(Cl)nc2)CC1 (stereo not shown) [Compound 9, 1-[1-(6-chloro-3-pyridyl)cyclopropyl]-1-(4-fluorophenyl)-2-(1,2,4-triazol-1-yl)ethanol]
≥ 80%: pest or weed control at 200 ppm [1] | pest or weed control at 200 ppm [2] | pest or weed control at 200 ppm [3] | inhibition of growth at 200 ppm [4] | inhibition of growth at 200 ppm [5]

OC(Cn1cncn1)(c1ccc(F)cc1)C1(c2ccccn2)CC1 (stereo not shown) [Compound 10, 1-(4-fluorophenyl)-1-[1-(2-pyridyl)cyclopropyl]-2-(1,2,4-triazol-1-yl)ethanol]
≥ 80%: pest or weed control at 200 ppm [1] | pest or weed control at 200 ppm [2] | pest or weed control at 200 ppm [3] | inhibition of growth at 200 ppm [4] | inhibition of growth at 200 ppm [5] | inhibition of growth at 200 ppm [6]

OC(Cn1cncn1)(c1ccc(F)cc1)C1(c2ccc(Br)cn2)CC1 (stereo not shown) [Compound 4, 1-[1-(5-bromo-2-pyridyl)cyclopropyl]-1-(4-fluorophenyl)-2-(1,2,4-triazol-1-yl)ethanol]
≥ 80%: pest or weed control at 200 ppm [1] | pest or weed control at 200 ppm [2] | pest or weed control at 200 ppm [3] | inhibition of growth at 200 ppm [4] | inhibition of growth at 200 ppm [6]

OC(Cn1cncn1)(c1ccc(Cl)cc1)C1(c2ccc(Cl)cn2)CCC1 (stereo not shown) [Compound 16, 1-(4-chlorophenyl)-1-[1-(5-chloro-2-pyridyl)cyclobutyl]-2-(1,2,4-triazol-1-yl)ethanol]
≥ 80%: pest or weed control at 200 ppm [1] | pest or weed control at 200 ppm [2] | pest or weed control at 200 ppm [3] | inhibition of growth at 200 ppm [4] | inhibition of growth at 200 ppm [5]

OC(Cn1cncn1)(c1ccc(F)cc1)C1(c2ccc(C3CC3)cn2)CC1 (stereo not shown) [Compound 7, 1-[1-(5-cyclopropyl-2-pyridyl)cyclopropyl]-1-(4-fluorophenyl)-2-(1,2,4-triazol-1-yl)ethanol]
≥ 80%: pest or weed control at 200 ppm [1] | pest or weed control at 200 ppm [2] | pest or weed control at 200 ppm [3] | inhibition of growth at 200 ppm [4] | inhibition of growth at 200 ppm [5] | inhibition of growth at 200 ppm [6]

OC(Cn1cncn1)(c1ccc(Cl)cc1)C1(c2ccccn2)CCCC1 (stereo not shown) [Compound 15, 1-(4-chlorophenyl)-1-[1-(2-pyridyl)cyclopentyl]-2-(1,2,4-triazol-1-yl)ethanol]
≥ 80%: pest or weed control at 200 ppm [1] | pest or weed control at 200 ppm [2] | pest or weed control at 200 ppm [3] | inhibition of growth at 200 ppm [4] | inhibition of growth at 200 ppm [5]

OC(Cn1cncn1)(c1ccc(F)cc1)C1(c2ccc(Br)c(-c3ccc(F)cc3)n2)CC1 (stereo not shown) [Compound 6, 1-[1-[5-bromo-6-(4-fluorophenyl)-2-pyridyl]cyclopropyl]-1-(4-fluorophenyl)-2-(1,2,4-triazol-1-yl)ethanol]
≥ 80%: pest or weed control at 200 ppm [1] | pest or weed control at 200 ppm [2] | pest or weed control at 200 ppm [3] | inhibition of growth at 200 ppm [4]
